Values of other authors as cited in patent US5693668A, “Acetylcholinesterase inhibitors” (priority 1989, dated 1997).

Conditions: Bronaugh and Stewart, J. Pharm. Sci. 1984; cited from earlier work

polyethylene glycol 20 Oleyl ether [PEG 20 oleyl ether]
effect on integrity or permeation characteristics of the skin: not found to affect the integrity or the permeation characteristics of the skin
